Test [1] addresses T1, AmOctα2R-HA (Apis mellifera, UniProt A0A7M7FZR9). As to the kind of experiment: Antagonist concentration-response on octopamine-activated AmOctα2R-HA in flpTM cells. The test is classed as cell-based. On the procedure:
(§1) For AmOctα2R-HA expression and pharmacological analysis, we used a human embryonic kidney (HEK293; flpIn cells; Invitrogen/ThermoFisher Scientific; #750-07)-based cell line that was transfected with a gene encoding a variant of the A2-subunit of the olfactory CNG ion channel (flpTM cells), provided by Sibion biosciences, Jülich, Germany. These flpTM cells were transfected with 3 µg, 8 µg, or 12 µg of the pcAmOctα2R-HA construct by a modified calcium phosphate method following a previously established protocol. Transfected cells were selected in the presence of the antibiotics G418 (1 mg/mL) and hygromycin (100 µg/mL). Expression of AmOctα2R-HA was monitored by Western blotting and immunocytochemistry using anti-HA antibodies (Roche/Sigma-Aldrich/Merck).
(§2) A stably transfected cell line was used to examine AmOctα2R-HA receptor activity by Ca^2+ imaging. Control measurements were performed in the parental (flpTM) cell line. Changes in [cAMP]i were registered indirectly via co-expressed CNG channels that were opened by cAMP and cause an influx of extracellular Ca^2+ [30, 32, 48]. Changes in [Ca^2+]i were monitored with the Ca^2+-sensitive fluorescent dye Fluo-4. Cells were grown in 96-well dishes to a density of approximately 2 × 10^4 cells per well and were loaded at room temperature with Fluo-4 AM as described previously. After 90 min, the loading solution was substituted with a dye-free extracellular solution (ECS; 120 mM NaCl, 5 mM KCl, 2 mM MgCl2, 2 mM CaCl2, 10 mM HEPES, and 10 mM glucose, pH 7.4 (NaOH)) containing 100 µM IBMX. The plate was transferred into a fluorescence reader (FLUOstar Omega, BMG Labtech, Ortenberg, Germany) to monitor Fluo-4 fluorescence. The excitation wavelength was 485 nm. Fluorescence emission was detected at 520 nm. Concentration series of various biogenic amines and synthetic receptor ligands were added, once Fluo-4 fluorescence intensity reached a stable value in each well. The changes in Fluo-4 fluorescence were recorded automatically. Concentration–response curves were established from at least three independent experiments with quadruplicate measurements.
Table S3. Mean values for half-maximal inhibition (IC50 [M] and log IC50 ± SD) for substances with antagonistic activity on octopamine-activated AmOctα2R. For each substance at least […] independent experiments with quadruplicate measurements were performed. Values were obtained from non-linear fitting of the data from concentration-response curves (GraphPad Prism 5.04).
Substance IC50 [M] log IC50 […]
Biol Direct. 2008, 3, 20. […]
Int.

Test [2] addresses T1, AmOctα2R-HA. As to the kind of experiment: Antagonist concentration-response on tyramine-activated AmOctα2R-HA in flpTM cells. The test is classed as cell-based. On the procedure:
The ability of various potential antagonists for impairing AmOctα2R-HA activity was assessed in a similar way. […] Ligand concentrations that led to the half-maximal inhibition of AmOctα2R-HA (IC50) were determined from the concentration–response curves and are summarized in Table 2.
as §1, §2

For test [3], the target named is T1, AmOctα2R-HA. Kind of test: Agonist effects on NKH 477-stimulated cAMP (Fluo-4 Ca2+ fluorescence via co-expressed CNG channel) in AmOctα2R-HA-expressing flpTM cells. Conditions: for effect on NKH 477-stimulated cAMP production (Ca2+-dependent fluorescence signal): biogenic amines 10^−6 M each. The test is classed as cell-based. On the procedure: as §1, §2
The subject of test [4] is nontransfected flpTM cells. As to the kind of experiment: Control measurements of Fluo-4 fluorescence in nontransfected (parental) flpTM cells. Format: cell-based, human. On the procedure: as §1
A stably transfected cell line was used to examine AmOctα2R-HA receptor activity by Ca^2+ imaging. […] Changes in [Ca^2+]i were monitored with the Ca^2+-sensitive fluorescent dye Fluo-4. […] The plate was transferred into a fluorescence reader (FLUOstar Omega, BMG Labtech, Ortenberg, Germany) to monitor Fluo-4 fluorescence. […] Fluorescence emission was detected at 520 nm. Concentration series of various biogenic amines and synthetic receptor ligands were added, once Fluo-4 fluorescence intensity reached a stable value in each well. The changes in Fluo-4 fluorescence were recorded automatically. […]

For the next test, the system named is DmOctα2R. Details: method as in PMID 28942992. As to conditions: dose-dependent activation of DmOctα2R; cited from earlier work.
[5] abbreviates: block of the action of octopamine, second value of the pair, read-out: IC50.
Where [6] appears, read: tyramine-activated (10 µM tyramine).
Setting [7] is: tyramine-activated (10 µM tyramine), 10 µM NKH 477, 100 µM IBMX, read-out: IC50 [M], mean value for half-maximal inhibition.
The mark [8] stands for this setting: log IC50 ± SD, log of IC50 in M, octopamine-activated (3 × 10^−7 M octopamine).
Where [9] appears, read: log of IC50 in M, octopamine-activated (3 × 10^−7 M octopamine), read-out: log IC50 ± SD (converted).
Setting [10] is: log of IC50 in M, tyramine-activated (10 µM tyramine), read-out: logIC50 ± SD (converted).
[11] abbreviates: log of EC50 in M, mean of all experiments, octopamine n = 7, tyramine n = 11, read-out: logEC50 ± SD, mean value (converted).
[12] abbreviates: log of EC50 in M, single concentration-response curve (Figures 4 and 6), read-out: logEC50 ± SD, typical experiment (converted).
[13] abbreviates: mean of all experiments, octopamine n = 7, tyramine n = 11, 10 µM NKH 477, 100 µM IBMX, read-out: EC50 [M], mean value for half-maximal stimulation.
The mark [14] stands for this setting: single concentration-response curve (Figures 4 and 6), octopamine fitted from 10^−9 M to 3 × 10^−6 M, read-out: EC50 (half-maximal reduction of cAMP / activation), typical experiment.

Entries after “also recorded” stand apart in the source; their conditions may differ. Read-outs that look alike come from different tables or passages of the source.

T1 sequence (A0A7M7FZR9 entry or part of it): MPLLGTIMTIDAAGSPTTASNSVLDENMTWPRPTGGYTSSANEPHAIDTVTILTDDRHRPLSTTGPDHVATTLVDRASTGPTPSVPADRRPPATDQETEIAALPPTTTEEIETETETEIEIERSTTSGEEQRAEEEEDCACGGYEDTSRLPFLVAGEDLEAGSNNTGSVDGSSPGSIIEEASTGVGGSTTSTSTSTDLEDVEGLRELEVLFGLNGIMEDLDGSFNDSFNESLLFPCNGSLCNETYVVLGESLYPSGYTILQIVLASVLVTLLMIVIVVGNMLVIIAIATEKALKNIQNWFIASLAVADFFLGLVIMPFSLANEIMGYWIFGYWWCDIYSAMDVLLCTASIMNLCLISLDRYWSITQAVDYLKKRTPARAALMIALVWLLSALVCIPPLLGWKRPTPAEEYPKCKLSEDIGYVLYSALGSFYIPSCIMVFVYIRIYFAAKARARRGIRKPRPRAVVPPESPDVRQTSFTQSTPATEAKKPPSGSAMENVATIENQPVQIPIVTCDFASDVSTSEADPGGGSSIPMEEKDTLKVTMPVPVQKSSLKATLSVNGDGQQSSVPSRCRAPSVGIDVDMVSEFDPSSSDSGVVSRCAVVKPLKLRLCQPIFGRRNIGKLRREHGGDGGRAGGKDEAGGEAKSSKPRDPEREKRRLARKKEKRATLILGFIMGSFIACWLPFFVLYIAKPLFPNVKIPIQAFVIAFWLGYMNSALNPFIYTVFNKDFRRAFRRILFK

As to `NCCc1c[nH]c2ccc(C(N)=O)cc12` [5-CT, 5-carboxamidotryptamine], the IC50 was determined as 0.27 nM at AmOctα2R-HA [1] (setting [5]) and 4.16e-09 M at AmOctα2R-HA [2] (setting [7]). Besides, on AmOctα2R-HA [1] (log of IC50 in M, octopamine-activated (3 × 10^−7 M octopamine)), the “log IC50 ± SD” value is -9.57 ± 0.21. For the same compound, the “logIC50 ± SD” value at AmOctα2R-HA [2] (log of IC50 in M, tyramine-activated (10 µM tyramine)) is −8.48 ± 0.20. For the same compound, on AmOctα2R-HA [2] (setting [6]), the “Maximal Inhibition [%]” value is on record as 10.8%.

With `COc1ccc2[nH]cc(CCN)c2c1` [5-MT, 5-methoxytryptamine], the IC50 against AmOctα2R-HA [1] (IC50, block of the action of octopamine, second value of the pair) was 836 nM; against AmOctα2R-HA [1] (setting [8]), 832 nM; against AmOctα2R-HA [2] (IC50, block of the action of tyramine, first value of the printed pair), 2.06e-08 M; against AmOctα2R-HA [2] (logIC50 ± SD, log of IC50 in M, tyramine-activated (10 µM tyramine)) it was 1.91e-08 M. For the same compound, the “Maximal Inhibition [%]” value at AmOctα2R-HA [2] (setting [6]) came to 20.3%.

As to `CCCN(CCC)C1CCc2cccc(O)c2C1` (stereo not drawn) [8-OH-DPAT, 8-Hydroxy-2-(dipropylamino)tetralin], the IC50 on AmOctα2R-HA [1] (setting [8]) is 166 nM; against AmOctα2R-HA [2], 7.08e-07 M. Further, at AmOctα2R-HA [2] (setting [6]), the “Maximal Inhibition [%]” value worked out at 7.21%.

On to `Cc1nn(C)c(C)c1-c1cccc2c1CC[C@H](N(C)C)C2` [AS-19], for which the “IC50 [M], mean value for half-maximal inhibition” value on AmOctα2R-HA [2] (tyramine-activated (10 µM tyramine), 10 µM NKH 477, 100 µM IBMX) was “did not show any effect; also recorded: no effect”.

With `NCCc1ccc(O)c(O)c1` [dopamine], the “effect on NKH 477-stimulated cAMP production (Ca2+-dependent fluorescence signal)” value (from here on “effect”) on AmOctα2R-HA [3] is listed as “no effect”.

Consider `NC1=NCC2c3ccccc3Cc3ccccc3N12` (stereo not drawn) [epinastine], for which the figures for the IC50 at AmOctα2R-HA [1] (setting [9]) and on AmOctα2R-HA [2] (setting [10]) were 16.2 nM and 1.78e-08 M, respectively. On AmOctα2R-HA [2] (setting [6]), the “Maximal Inhibition [%]” value is 17.31%.

As for `O=C(c1ccc(F)cc1)C1CCN(CCn2c(=O)[nH]c3ccccc3c2=O)CC1` [ketanserin], the IC50 is 324 nM on AmOctα2R-HA [1] (setting [9]) and 5.13e-07 M at AmOctα2R-HA [2] (setting [10]). Further, on AmOctα2R-HA [2] (setting [6]), the “Maximal Inhibition [%]” value is reported as 17.11%.

Turning to `NCC(O)c1ccc(O)cc1` (stereo not drawn) [octopamine], at AmOctα2R-HA [3] (AmOctα2R-HA-expressing flpTM cells, U-shaped curve, 10 µM NKH 477, 100 µM IBMX), the “octopamine concentration at which an increase in the fluorescence signal was observed” value is at least 3 µM. The Emax at 1 µM at AmOctα2R-HA [3] (at 10^−6 M octopamine, relative to 10 µM NKH 477 (=100%), read-out: maximal reduction of cAMP synthesis) was around 25%. Further, the “effect” value on AmOctα2R-HA [3] is on record as “decrease in the Ca^2+-dependent fluorescence signal”. Besides, the EC50 on AmOctα2R-HA [3] (setting [11]) was 3.72e-08 M; at AmOctα2R-HA [3] (setting [12]), 1.17e-07 M; at AmOctα2R-HA [3] (setting [13]), 5.87e-08 M; at AmOctα2R-HA [3] (setting [14]) it was 1.17e-07 M. Also, the “specificity for octopamine over tyramine (difference in EC50)” value on AmOctα2R-HA [3] (ratio of EC50 values) is listed as ~ 30 fold. Also, in test [4] (in the presence of NKH 477), the “octopamine concentration leading to an increase in Fluo-4 fluorescence” value was at least 300 nM.

In the case of `Cc1ccc(N(CC2=NCCN2)c2cccc(O)c2)cc1` [phentolamine], the IC50 on AmOctα2R-HA [1] (setting [5]) was 8.21 nM; on AmOctα2R-HA [1] (setting [9]), 8.13 nM; on AmOctα2R-HA [2] (setting [10]) it was 5.01e-09 M; at AmOctα2R-HA [2] (setting [7]), 5.6e-09 M. For the same compound, the “Maximal Inhibition [%]” value at AmOctα2R-HA [2] (setting [6]) is reported as 16.1%.

As for `NCCc1c[nH]c2ccc(O)cc12` [serotonin, 5-hydroxytryptamine], on AmOctα2R-HA [3], the “activation of AmOctα2R” value is on record as “failed to activate” and the “effect” value was “no effect”. For the same compound, the EC50 in the test with DmOctα2R is 1040 nM.

On to `NCCc1ccc(O)cc1` [tyramine], for which the “effect” value at AmOctα2R-HA [3] is “decrease in the Ca^2+-dependent fluorescence signal”. The EC50 on AmOctα2R-HA [3] (setting [11]) is 1.66e-06 M; at AmOctα2R-HA [3] (setting [12]) it was 1.63e-06 M; at AmOctα2R-HA [3] (setting [13]) it was 1.85e-06 M; on AmOctα2R-HA [3] (setting [14]), 1.63e-06 M. On AmOctα2R-HA [3] (saturated at tyramine concentration of ≥3 × 10^−5 M, relative to 10 µM NKH 477 (=100%), read-out: reduction of cAMP signal at saturation), the Emax was around 17%. In addition, in test [4], the “change in the fluorescence signal upon application” value is “no change in the fluorescence signal”.

`COC(=O)[C@@H]1[C@H]2C[C@H]3c4[nH]c5ccccc5c4CCN3C[C@@H]2CC[C@@H]1O` [yohimbine]: the IC50 was 363 nM against AmOctα2R-HA [1] (setting [8]) and 7.59e-08 M on AmOctα2R-HA [2]. For the same compound, the “Maximal Inhibition [%]” value on AmOctα2R-HA [2] (setting [6]) worked out at 14.3%.
